{"source": "patent US10544154B2", "about": "“Opioid receptor antagonist prodrugs” (Nirsum Laboratories, Inc., priority 2017, dated 2020)", "key": {"[1]": {"test": "Polymorph screening of solid state drug substances", "type": "physicochemical", "conditions": "for Dry method and appearance: after stirring at 50 °C for 72 hours; for XRPD results (Dried): dried solid"}, "[2]": {"test": "Clinical observations for dogs in pharmacokinetic studies", "type": "in vivo, Beagle dogs", "conditions": "48 mg/kg", "experimental": "Weight monitoring was done every week.\nThe dose formulation (concentration—400 mg base equivalents/ml in sesame oil+1% benzyl alcohol, unless otherwise specified) was administered via deep intramuscularly (unless otherwise specified). The injection vehicle was also dosed via deep intramuscular route (unless otherwise specified) on contralateral site of each animal at study initiation. The animals were sedated with Propofol at 6 mg/kg via IV administration. Following sedation hair was carefully removed from around the injection site and the area gently cleaned. Care will be taken to avoid irritating skin during shaving and cleaning the injection site. Then dogs will be dosed with deep IM administration. At least 2.5 cm depth from the surface into the central aspect of the quadriceps or biceps femoris muscle, by angling the needle toward the femur. If the needle hits the femur, simply draws back slightly and then inject. The dose volume will be determined by the animals' body weight collected on the morning of dosing day. For repeated administration, the injection sites may be rotated to minimize tissue injury."}}}
{"smiles": "C=C1CC[C@@]2(O)C3Cc4ccc(OC(=O)CCCCCCCCCCCCCCCCCCC)c5c4[C@@]2(CCN3CC2CC2)[C@H]1O5", "note": "[Compound 16, (4aS,7aS,12bS)-3-(cyclopropylmethyl)-4a-hydroxy-7-methylene-2,3,4,4a,5,6,7,7a-octahydro-1H-4,12-methanobenzofuro[3,2-e]isoquinolin-9-yl icosanoate]", "values": [{"measurement": "Dry method and appearance", "setting": "[1]; Acetone", "result": "Evaporation/white powder"}, {"measurement": "XRPD results (Dried)", "setting": "[1]; Acetone", "result": "Pattern A"}, {"measurement": "Dry method and appearance", "setting": "[1]; EtOAc", "result": "Evaporation/white powder"}, {"measurement": "XRPD results (Dried)", "setting": "[1]; EtOAc", "result": "Pattern A"}, {"measurement": "Dry method and appearance", "setting": "[1]; Heptane", "result": "Centrifugation/white powder"}, {"measurement": "XRPD results (Dried)", "setting": "[1]; Heptane", "result": "Pattern A"}, {"measurement": "Dry method and appearance", "setting": "[1]; Isopropanol", "result": "Centrifugation/white powder"}, {"measurement": "XRPD results (Dried)", "setting": "[1]; Isopropanol", "result": "Pattern A"}, {"measurement": "Dry method and appearance", "setting": "[1]; MTBE", "result": "Evaporation/white powder"}, {"measurement": "XRPD results (Dried)", "setting": "[1]; MTBE", "result": "Pattern A"}]}
{"smiles": "C=C1CC[C@@]2(O)C3Cc4ccc(OC(=O)NC(C)(C)C)c5c4[C@@]2(CCN3CC2CC2)[C@H]1O5", "note": "[Compound 40, (4aS,7aS,12bS)-3-(cyclopropylmethyl)-4a-hydroxy-7-methylene-2,3,4,4a,5,6,7,7a-octahydro-1H-4,12-methanobenzofuro[3,2-e]isoquinolin-9-yl tert-butylcarbamate]", "values": [{"measurement": "Dry method and appearance", "setting": "[1]; Acetone", "result": "Evaporation/white powder"}, {"measurement": "XRPD results (Dried)", "setting": "[1]; Acetone", "result": "Amorphous"}, {"measurement": "Dry method and appearance", "setting": "[1]; EtOAc", "result": "Evaporation/white powder"}, {"measurement": "XRPD results (Dried)", "setting": "[1]; EtOAc", "result": "Pattern A"}, {"measurement": "Dry method and appearance", "setting": "[1]; Heptane", "result": "Centrifugation/white powder"}, {"measurement": "XRPD results (Dried)", "setting": "[1]; Heptane", "result": "Pattern A"}, {"measurement": "Dry method and appearance", "setting": "[1]; Isopropanol", "result": "Evaporation/oil"}, {"measurement": "XRPD results (Dried)", "setting": "[1]; Isopropanol", "result": "Amorphous"}, {"measurement": "Dry method and appearance", "setting": "[1]; MTBE", "result": "Evaporation/white powder"}, {"measurement": "XRPD results (Dried)", "setting": "[1]; MTBE", "result": "Amorphous"}]}
{"smiles": "C=C1CC[C@@]2(O)C3Cc4ccc(OC(=O)OCCCCCCCCCCC)c5c4[C@@]2(CCN3CC2CC2)[C@H]1O5", "note": "[Compound 3, (4aS,7aS,12bS)-3-(cyclopropylmethyl)-4a-hydroxy-7-methylene-2,3,4,4a,5,6,7,7a-octahydro-1H-4,12-methanobenzofuro[3,2-e]isoquinolin-9-yl undecyl carbonate]", "values": [{"measurement": "BT", "setting": "[2]; dog D1001, Day 1", "result": "cm/BT: 39.2° C./"}, {"measurement": "BT", "setting": "[2]; dog D1001, Day 2", "result": 38.9, "unit": "°C"}, {"measurement": "BT", "setting": "[2]; dog D1001, Day 3", "result": 39.1, "unit": "°C"}, {"measurement": "BT", "setting": "[2]; dog D1001, Day 4", "result": 38.5, "unit": "°C"}, {"measurement": "BT", "setting": "[2]; dog D1001, Day 5", "result": 38.6, "unit": "°C"}, {"measurement": "BT", "setting": "[2]; dog D1001, Day 6", "result": 38.4, "unit": "°C"}, {"measurement": "BT", "setting": "[2]; dog D1001, Day 7", "result": 38.4, "unit": "°C"}, {"measurement": "BT", "setting": "[2]; dog D1001, Day 8", "result": 38.7, "unit": "°C"}, {"measurement": "BT", "setting": "[2]; dog D1001, Day 9", "result": 38.7, "unit": "°C"}, {"measurement": "BT", "setting": "[2]; dog D1001, Day 10", "result": 38.4, "unit": "°C"}, {"measurement": "BT", "setting": "[2]; dog D1001, Day 11", "result": 38.8, "unit": "°C"}, {"measurement": "BT", "setting": "[2]; dog D1001, Day 12", "result": 38.0, "unit": "°C"}, {"measurement": "BT", "setting": "[2]; dog D1001, Day 13", "result": 38.4, "unit": "°C"}, {"measurement": "BT", "setting": "[2]; dog D1001, Day 15", "result": 37.8, "unit": "°C"}, {"measurement": "BT", "setting": "[2]; dog D1001, Day 17", "result": "BT: 38.3 °C"}, {"measurement": "BT", "setting": "[2]; dog D1001, Day 18", "result": "BT: 38.4 °C"}, {"measurement": "BT", "setting": "[2]; dog D1001, Day 19", "result": "BT: 38.3 °C"}, {"measurement": "BT", "setting": "[2]; dog D1001, Day 20", "result": "BT: 37.9 °C"}, {"measurement": "BT", "setting": "[2]; dog D1001, Day 21", "result": "BT: 38.6 °C"}, {"measurement": "BT", "setting": "[2]; dog D1001, Day 22", "result": "BT: 38.8 °C"}, {"measurement": "BT", "setting": "[2]; dog D1001, Day 23", "result": "BT: 38.3 °C"}, {"measurement": "BT", "setting": "[2]; dog D1001, Day 24", "result": "BT: 38.5 °C"}, {"measurement": "BT", "setting": "[2]; dog D1001, Day 25", "result": "BT: 38.4 °C"}, {"measurement": "BT", "setting": "[2]; dog D1001, Day 26", "result": "BT: 38.2 °C"}, {"measurement": "BT", "setting": "[2]; dog D1001, Day 27", "result": "BT: 38.4 °C"}, {"measurement": "BT", "setting": "[2]; dog D1002, Day 1", "result": 39.1, "unit": "°C"}, {"measurement": "BT", "setting": "[2]; dog D1002, Day 2", "result": 39.3, "unit": "°C"}, {"measurement": "BT", "setting": "[2]; dog D1002, Day 3", "result": 39.3, "unit": "°C"}, {"measurement": "BT", "setting": "[2]; dog D1002, Day 4", "result": 38.5, "unit": "°C"}, {"measurement": "BT", "setting": "[2]; dog D1002, Day 5", "result": 38.7, "unit": "°C"}, {"measurement": "BT", "setting": "[2]; dog D1002, Day 6", "result": 38.8, "unit": "°C"}, {"measurement": "BT", "setting": "[2]; dog D1002, Day 7", "result": 38.6, "unit": "°C"}, {"measurement": "BT", "setting": "[2]; dog D1002, Day 8", "result": 38.7, "unit": "°C"}, {"measurement": "BT", "setting": "[2]; dog D1002, Day 9", "result": 38.3, "unit": "°C"}, {"measurement": "BT", "setting": "[2]; dog D1002, Day 10", "result": "calf/BT: 38.3 °C"}, {"measurement": "BT", "setting": "[2]; dog D1002, Day 11", "result": 38.9, "unit": "°C"}, {"measurement": "BT", "setting": "[2]; dog D1002, Day 12", "result": 38.5, "unit": "°C"}, {"measurement": "BT", "setting": "[2]; dog D1002, Day 13", "result": 38.8, "unit": "°C"}, {"measurement": "BT", "setting": "[2]; dog D1002, Day 14", "result": 38.3, "unit": "°C"}, {"measurement": "BT", "setting": "[2]; dog D1002, Day 15", "result": 37.8, "unit": "°C"}, {"measurement": "BT", "setting": "[2]; dog D1002, Day 17", "result": 38.7, "unit": "°C"}, {"measurement": "BT", "setting": "[2]; dog D1002, Day 18", "result": 38.8, "unit": "°C"}, {"measurement": "BT", "setting": "[2]; dog D1002, Day 19", "result": 38.7, "unit": "°C"}, {"measurement": "BT", "setting": "[2]; dog D1002, Day 20", "result": 38.6, "unit": "°C"}, {"measurement": "BT", "setting": "[2]; dog D1002, Day 21", "result": "BT: 38.5 °C"}, {"measurement": "BT", "setting": "[2]; dog D1002, Day 22", "result": "BT: 39.3 °C"}, {"measurement": "BT", "setting": "[2]; dog D1002, Day 23", "result": "BT: 38.8 °C"}, {"measurement": "BT", "setting": "[2]; dog D1002, Day 24", "result": "BT: 39.1 °C"}, {"measurement": "BT", "setting": "[2]; dog D1002, Day 25", "result": "BT: 38.6 °C"}, {"measurement": "BT", "setting": "[2]; dog D1002, Day 26", "result": "BT: 38.6 °C"}, {"measurement": "BT", "setting": "[2]; dog D1002, Day 27", "result": "cm/BT: 38.6 °C"}, {"measurement": "Clinical observation, R-TA", "setting": "[2]; dog D1003, 8 hr", "result": "Swelling 4 * 3"}, {"measurement": "BT", "setting": "[2]; dog D1003, Day 1", "result": "side/BT: 39.6 °C"}, {"measurement": "BT", "setting": "[2]; dog D1003, Day 2", "result": "side/BT: 39.7 °C"}, {"measurement": "BT", "setting": "[2]; dog D1003, Day 3", "result": 39.2, "unit": "°C"}, {"measurement": "BT", "setting": "[2]; dog D1003, Day 4", "result": "site/BT: 38.7 °C"}, {"measurement": "BT", "setting": "[2]; dog D1003, Day 5", "result": 39.0, "unit": "°C"}, {"measurement": "BT", "setting": "[2]; dog D1003, Day 6", "result": 39.2, "unit": "°C"}, {"measurement": "BT", "setting": "[2]; dog D1003, Day 7", "result": 39.5, "unit": "°C"}, {"measurement": "BT", "setting": "[2]; dog D1003, Day 8", "result": 39.4, "unit": "°C"}, {"measurement": "BT", "setting": "[2]; dog D1003, Day 9", "result": 38.8, "unit": "°C"}, {"measurement": "BT", "setting": "[2]; dog D1003, Day 10", "result": 38.9, "unit": "°C"}, {"measurement": "BT", "setting": "[2]; dog D1003, Day 11", "result": "swelling/BT: 39.4 °C"}, {"measurement": "BT", "setting": "[2]; dog D1003, Day 12", "result": "swelling/BT: 39.3 °C"}, {"measurement": "BT", "setting": "[2]; dog D1003, Day 13", "result": "swelling/BT: 39.9 °C"}, {"measurement": "BT", "setting": "[2]; dog D1003, Day 15", "result": "swelling/BT: 39.4 °C"}, {"measurement": "BT", "setting": "[2]; dog D1003, Day 17", "result": "swelling/BT: 39.5 °C"}, {"measurement": "BT", "setting": "[2]; dog D1003, Day 18", "result": "swelling/BT: 39.5 °C"}, {"measurement": "BT", "setting": "[2]; dog D1003, Day 19", "result": "swelling/BT: 39.4 °C"}, {"measurement": "BT", "setting": "[2]; dog D1003, Day 21", "result": "swelling/BT: 39.3 °C"}, {"measurement": "BT", "setting": "[2]; dog D1003, Day 22", "result": "swelling/BT: 39.9 °C"}, {"measurement": "BT", "setting": "[2]; dog D1003, Day 24", "result": "BT: 39.5 °C"}, {"measurement": "BT", "setting": "[2]; dog D1003, Day 25", "result": "BT: 39.8 °C"}, {"measurement": "BT", "setting": "[2]; dog D1003, Day 26", "result": "BT: 39.3 °C"}, {"measurement": "BT", "setting": "[2]; dog D1003, Day 27", "result": "BT: 38.9 °C"}]}
